Data reported in ChEMBL document CHEMBL2321869, “Ion channels as therapeutic targets: a drug discovery perspective” (J Med Chem, 2013).

Legend:
[1] = target: T1, Gamma-aminobutyric acid receptor subunit alpha-3 (Homo sapiens, UniProt P34903); experiment: Positive allosteric modulation of GABAA alpha3 (unknown origin)
T1 sequence (P34903 whole entry): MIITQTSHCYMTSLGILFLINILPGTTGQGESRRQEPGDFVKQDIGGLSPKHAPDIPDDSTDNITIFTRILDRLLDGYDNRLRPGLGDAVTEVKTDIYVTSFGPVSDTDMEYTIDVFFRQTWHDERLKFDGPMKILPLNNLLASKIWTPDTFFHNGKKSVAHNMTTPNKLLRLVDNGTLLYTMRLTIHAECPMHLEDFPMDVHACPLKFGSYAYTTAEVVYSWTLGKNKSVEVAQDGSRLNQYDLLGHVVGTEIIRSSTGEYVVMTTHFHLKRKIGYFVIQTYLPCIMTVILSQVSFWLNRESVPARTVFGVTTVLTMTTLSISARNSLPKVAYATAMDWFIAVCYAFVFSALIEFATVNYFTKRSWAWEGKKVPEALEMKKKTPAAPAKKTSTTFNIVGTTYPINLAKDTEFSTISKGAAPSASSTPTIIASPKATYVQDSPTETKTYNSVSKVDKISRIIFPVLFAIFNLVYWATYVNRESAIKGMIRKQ

[2] = target: T2, Gamma-aminobutyric acid receptor subunit alpha-2 (Homo sapiens) (UniProt P47869); experiment: Positive allosteric modulation of GABAA alpha2 (unknown origin) relative to control
T2 sequence (whole entry): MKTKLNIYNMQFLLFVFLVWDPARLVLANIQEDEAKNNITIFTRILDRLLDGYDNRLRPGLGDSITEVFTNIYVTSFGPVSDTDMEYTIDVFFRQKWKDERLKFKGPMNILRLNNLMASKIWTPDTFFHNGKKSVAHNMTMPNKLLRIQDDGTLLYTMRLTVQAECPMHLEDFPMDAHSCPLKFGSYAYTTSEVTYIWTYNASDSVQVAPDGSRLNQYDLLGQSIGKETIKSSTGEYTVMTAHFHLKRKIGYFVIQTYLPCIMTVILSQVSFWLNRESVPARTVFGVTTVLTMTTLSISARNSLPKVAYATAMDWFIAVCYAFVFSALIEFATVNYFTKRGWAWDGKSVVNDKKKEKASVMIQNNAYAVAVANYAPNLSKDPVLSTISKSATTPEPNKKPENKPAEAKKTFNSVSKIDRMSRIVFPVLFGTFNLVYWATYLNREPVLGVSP

[3] = target: T3, Gamma-aminobutyric acid receptor subunit alpha-1 (Homo sapiens, UniProt P14867); experiment: Positive allosteric modulation of GABAA alpha1 (unknown origin)
T3 sequence (P14867 whole entry): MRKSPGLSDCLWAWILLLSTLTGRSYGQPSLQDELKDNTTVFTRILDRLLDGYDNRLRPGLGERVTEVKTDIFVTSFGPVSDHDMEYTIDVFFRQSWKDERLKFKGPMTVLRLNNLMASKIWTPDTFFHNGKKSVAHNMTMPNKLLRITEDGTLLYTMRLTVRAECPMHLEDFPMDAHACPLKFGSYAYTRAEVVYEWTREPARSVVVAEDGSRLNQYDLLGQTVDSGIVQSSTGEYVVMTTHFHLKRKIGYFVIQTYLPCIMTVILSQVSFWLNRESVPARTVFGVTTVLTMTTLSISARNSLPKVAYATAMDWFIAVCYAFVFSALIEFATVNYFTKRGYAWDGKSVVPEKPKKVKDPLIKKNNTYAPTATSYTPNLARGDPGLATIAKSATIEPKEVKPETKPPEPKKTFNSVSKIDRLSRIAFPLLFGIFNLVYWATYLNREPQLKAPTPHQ

[4] = target: T4, Gamma-aminobutyric acid receptor subunit alpha-2 (Homo sapiens, UniProt P47869); experiment: Positive allosteric modulation of GABAA alpha2 (unknown origin)
T4 sequence (P47869 whole entry): T2 sequence (whole entry)

[5] = Agonist activity at AMPA receptor in rat hippocampal neurons by patch clamp technique; format: tissue-based; conditions: Hippocampus
Rattus norvegicus [6] = species on record: Rattus norvegicus; experiment: Selectivity ratio of EC50 for AMPA receptor in rat DRG neurons to EC50 for AMPA receptor in rat hippocampal neurons; format: tissue-based; conditions: Hippocampus
Homo sapiens [7] = species on record: Homo sapiens; experiment: Selectivity ratio of IC50 for human voltage-gated Na channel 1.7 to IC50 for human voltage-gated Na channel 1.8
Homo sapiens [8] = species on record: Homo sapiens; experiment: Selectivity ratio of IC50 for human voltage-gated Na channel 1.5 to IC50 for human voltage-gated Na channel 1.8
Homo sapiens [9] = species on record: Homo sapiens; experiment: Selectivity ratio of IC50 for human voltage-gated Na channel 1.1 to IC50 for human voltage-gated Na channel 1.8
[10] = target: P2X2/P2X3 heterotrimeric receptor (Homo sapiens, UniProt P56373+Q9UBL9); experiment: Antagonist activity at human P2X2/3 receptor; format: protein-complex assay
Chain of P2X2/P2X3 heterotrimeric receptor (Q9UBL9 whole entry): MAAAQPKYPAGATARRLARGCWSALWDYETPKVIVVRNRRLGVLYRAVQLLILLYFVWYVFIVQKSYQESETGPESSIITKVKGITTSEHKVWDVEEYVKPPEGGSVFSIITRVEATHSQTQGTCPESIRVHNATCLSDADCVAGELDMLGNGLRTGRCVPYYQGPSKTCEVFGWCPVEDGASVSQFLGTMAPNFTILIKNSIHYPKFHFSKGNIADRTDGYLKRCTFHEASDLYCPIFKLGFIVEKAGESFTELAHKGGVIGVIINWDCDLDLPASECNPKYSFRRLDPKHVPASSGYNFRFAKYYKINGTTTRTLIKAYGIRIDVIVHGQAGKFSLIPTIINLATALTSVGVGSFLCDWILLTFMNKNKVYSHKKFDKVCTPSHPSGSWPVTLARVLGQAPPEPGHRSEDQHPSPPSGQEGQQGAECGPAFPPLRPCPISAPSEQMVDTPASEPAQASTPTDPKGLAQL
Chain of P2X2/P2X3 heterotrimeric receptor (P56373 whole entry): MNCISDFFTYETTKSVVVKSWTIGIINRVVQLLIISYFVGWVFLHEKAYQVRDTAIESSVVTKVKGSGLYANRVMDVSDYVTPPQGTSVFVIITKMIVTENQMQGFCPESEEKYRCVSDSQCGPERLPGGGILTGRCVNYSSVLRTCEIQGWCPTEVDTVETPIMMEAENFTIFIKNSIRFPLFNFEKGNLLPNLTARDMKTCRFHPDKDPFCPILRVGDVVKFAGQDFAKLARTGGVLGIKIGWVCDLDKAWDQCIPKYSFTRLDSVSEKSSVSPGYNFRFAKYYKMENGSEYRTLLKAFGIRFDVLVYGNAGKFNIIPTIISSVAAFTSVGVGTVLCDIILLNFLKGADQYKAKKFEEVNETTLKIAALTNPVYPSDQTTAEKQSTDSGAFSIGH

[11] = target: Voltage-gated potassium channel KCNC1 (Rattus norvegicus, UniProt P25122); experiment: Inhibition of rat voltage-gated K channel 3.1 expressed in CHO cells by patch clamp assay; format: cell-based
Chain of Voltage-gated potassium channel KCNC1 (P25122 whole entry): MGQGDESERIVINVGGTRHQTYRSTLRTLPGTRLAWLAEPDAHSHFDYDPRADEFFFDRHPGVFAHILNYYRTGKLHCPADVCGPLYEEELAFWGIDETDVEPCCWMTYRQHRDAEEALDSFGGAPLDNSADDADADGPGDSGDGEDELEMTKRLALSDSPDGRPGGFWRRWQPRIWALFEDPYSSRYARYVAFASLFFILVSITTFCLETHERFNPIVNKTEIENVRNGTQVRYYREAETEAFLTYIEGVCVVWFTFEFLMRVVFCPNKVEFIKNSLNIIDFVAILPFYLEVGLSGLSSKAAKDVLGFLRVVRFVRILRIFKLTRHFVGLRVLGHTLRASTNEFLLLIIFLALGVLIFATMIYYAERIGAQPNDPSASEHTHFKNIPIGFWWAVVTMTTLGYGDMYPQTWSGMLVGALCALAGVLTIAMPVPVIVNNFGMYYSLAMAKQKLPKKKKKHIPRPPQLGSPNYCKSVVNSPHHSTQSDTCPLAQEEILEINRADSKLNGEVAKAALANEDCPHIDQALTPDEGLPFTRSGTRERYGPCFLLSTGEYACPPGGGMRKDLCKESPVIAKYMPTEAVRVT

[12] = target: Inward rectifier potassium channel 4 (Homo sapiens, UniProt P48050); experiment: Inhibition of Kir2.3 (unknown origin)
Chain of Inward rectifier potassium channel 4 (P48050 whole entry): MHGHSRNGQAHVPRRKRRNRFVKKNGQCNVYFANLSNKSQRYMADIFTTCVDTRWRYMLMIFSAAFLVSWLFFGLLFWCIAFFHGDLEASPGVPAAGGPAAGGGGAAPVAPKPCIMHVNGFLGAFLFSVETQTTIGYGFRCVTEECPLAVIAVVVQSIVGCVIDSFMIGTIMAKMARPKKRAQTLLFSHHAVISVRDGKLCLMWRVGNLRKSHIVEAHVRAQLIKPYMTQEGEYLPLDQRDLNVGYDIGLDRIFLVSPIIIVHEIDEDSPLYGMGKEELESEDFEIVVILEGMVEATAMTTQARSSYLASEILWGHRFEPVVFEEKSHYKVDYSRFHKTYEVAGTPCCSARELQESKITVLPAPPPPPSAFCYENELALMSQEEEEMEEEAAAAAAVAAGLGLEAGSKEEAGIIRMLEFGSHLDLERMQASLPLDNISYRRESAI

[13] = target: Gamma-aminobutyric acid receptor subunit alpha-3 (Homo sapiens) (UniProt P34903); experiment: Positive allosteric modulation of GABAA alpha3 (unknown origin) relative to control
[14] = target: Gamma-aminobutyric acid receptor subunit alpha-5 (Homo sapiens) (UniProt P31644); experiment: Positive allosteric modulation of GABAA alpha5 (unknown origin) relative to control
[15] = target: T5, Gamma-aminobutyric acid receptor subunit alpha-5 (Homo sapiens, UniProt P31644); experiment: Positive allosteric modulation of GABAA alpha5 (unknown origin)
T5 sequence (P31644 whole entry): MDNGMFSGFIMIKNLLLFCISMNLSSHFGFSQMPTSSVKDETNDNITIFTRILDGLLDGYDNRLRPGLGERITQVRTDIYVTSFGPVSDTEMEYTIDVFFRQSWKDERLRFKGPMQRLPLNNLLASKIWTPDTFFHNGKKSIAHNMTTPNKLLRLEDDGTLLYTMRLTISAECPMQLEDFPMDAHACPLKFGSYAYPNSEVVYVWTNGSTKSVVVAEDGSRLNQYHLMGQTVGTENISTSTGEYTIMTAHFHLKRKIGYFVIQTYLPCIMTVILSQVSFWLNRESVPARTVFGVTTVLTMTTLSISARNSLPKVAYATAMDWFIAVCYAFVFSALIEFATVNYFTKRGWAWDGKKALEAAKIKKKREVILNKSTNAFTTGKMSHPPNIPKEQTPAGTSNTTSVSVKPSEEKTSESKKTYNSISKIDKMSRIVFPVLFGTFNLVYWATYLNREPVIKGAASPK

[16] = target: Transient receptor potential cation channel subfamily V member 4 (Homo sapiens, UniProt Q9HBA0); experiment: Inhibition of TRPV4 (unknown origin)
[17] = target: Sodium channel protein type 3 subunit alpha (Homo sapiens, UniProt Q9NY46); experiment: Inhibition of human voltage-gated Na channel 1.3
Chain of Sodium channel protein type 3 subunit alpha (Q9NY46 whole entry): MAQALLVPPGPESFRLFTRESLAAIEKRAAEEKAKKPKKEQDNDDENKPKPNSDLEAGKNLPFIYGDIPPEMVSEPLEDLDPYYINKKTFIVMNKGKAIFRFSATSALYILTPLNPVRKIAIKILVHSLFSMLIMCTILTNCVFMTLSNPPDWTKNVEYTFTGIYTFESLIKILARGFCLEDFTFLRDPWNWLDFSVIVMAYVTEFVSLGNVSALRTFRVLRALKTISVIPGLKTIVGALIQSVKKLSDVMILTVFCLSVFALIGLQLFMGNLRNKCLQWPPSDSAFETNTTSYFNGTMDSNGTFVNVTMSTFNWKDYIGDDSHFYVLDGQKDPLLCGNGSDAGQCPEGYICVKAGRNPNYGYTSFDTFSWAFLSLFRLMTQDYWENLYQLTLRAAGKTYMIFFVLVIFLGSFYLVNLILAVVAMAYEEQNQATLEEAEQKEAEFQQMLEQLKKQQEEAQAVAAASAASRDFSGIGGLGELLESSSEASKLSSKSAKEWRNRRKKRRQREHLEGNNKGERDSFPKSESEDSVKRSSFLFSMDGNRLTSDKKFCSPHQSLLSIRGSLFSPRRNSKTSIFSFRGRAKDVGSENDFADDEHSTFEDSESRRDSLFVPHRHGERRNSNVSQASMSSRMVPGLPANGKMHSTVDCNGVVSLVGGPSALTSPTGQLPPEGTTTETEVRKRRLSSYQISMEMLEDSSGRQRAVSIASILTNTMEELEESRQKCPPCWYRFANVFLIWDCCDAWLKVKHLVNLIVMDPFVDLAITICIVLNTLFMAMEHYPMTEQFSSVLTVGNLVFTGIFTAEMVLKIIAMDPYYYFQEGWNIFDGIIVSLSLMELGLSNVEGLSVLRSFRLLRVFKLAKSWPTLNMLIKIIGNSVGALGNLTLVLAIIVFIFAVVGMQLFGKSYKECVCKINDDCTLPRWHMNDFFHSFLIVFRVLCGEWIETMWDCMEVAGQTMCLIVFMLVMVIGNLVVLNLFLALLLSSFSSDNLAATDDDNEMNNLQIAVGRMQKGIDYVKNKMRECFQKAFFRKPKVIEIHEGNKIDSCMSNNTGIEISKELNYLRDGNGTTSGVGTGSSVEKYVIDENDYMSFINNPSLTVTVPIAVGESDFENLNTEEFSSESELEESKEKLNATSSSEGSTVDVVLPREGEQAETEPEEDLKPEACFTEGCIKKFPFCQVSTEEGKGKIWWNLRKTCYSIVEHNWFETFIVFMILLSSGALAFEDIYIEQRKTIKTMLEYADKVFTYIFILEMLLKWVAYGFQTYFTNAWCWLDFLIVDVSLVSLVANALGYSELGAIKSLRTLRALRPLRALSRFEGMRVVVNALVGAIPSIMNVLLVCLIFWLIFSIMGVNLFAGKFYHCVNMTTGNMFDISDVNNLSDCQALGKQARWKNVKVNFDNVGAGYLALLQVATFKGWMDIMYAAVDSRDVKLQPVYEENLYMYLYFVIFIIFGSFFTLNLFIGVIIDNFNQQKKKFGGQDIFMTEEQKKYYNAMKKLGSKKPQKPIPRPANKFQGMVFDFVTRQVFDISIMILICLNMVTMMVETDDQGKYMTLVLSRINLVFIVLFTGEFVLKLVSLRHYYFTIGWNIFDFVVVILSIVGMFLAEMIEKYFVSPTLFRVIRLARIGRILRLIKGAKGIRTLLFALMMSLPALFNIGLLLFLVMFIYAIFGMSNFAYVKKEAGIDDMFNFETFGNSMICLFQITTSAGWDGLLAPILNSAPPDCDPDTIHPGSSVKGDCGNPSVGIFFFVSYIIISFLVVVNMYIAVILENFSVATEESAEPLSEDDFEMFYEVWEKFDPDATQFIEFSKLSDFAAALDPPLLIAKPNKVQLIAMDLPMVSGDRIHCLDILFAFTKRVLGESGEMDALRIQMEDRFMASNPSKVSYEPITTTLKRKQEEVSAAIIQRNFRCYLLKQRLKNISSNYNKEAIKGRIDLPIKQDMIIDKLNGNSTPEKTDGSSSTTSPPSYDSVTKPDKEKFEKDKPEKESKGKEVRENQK

Homo sapiens [18] = species on record: Homo sapiens; experiment: Selectivity ratio of IC50 for human voltage-gated Na channel 1.5 to IC50 for human voltage-gated Na channel 1.3
Rattus norvegicus [19] = species on record: Rattus norvegicus; experiment: Selectivity ratio of EC50 for AMPA receptor in rat hippocampal neurons to EC50 for AMPA receptor in rat DRG neurons; format: tissue-based; conditions: Hippocampus
[20] = Agonist activity at AMPA receptor in rat DRG neurons by patch clamp technique; conditions: DRG neuron
[21] = target: Acid-sensing ion channel 3 (Rattus norvegicus, UniProt O35240); experiment: Inhibition of ASIC3 in rat DRG neurons
[22] = Blockade of ASIC (unknown origin); set-up: species or system Homo sapiens
Homo sapiens [23] = species on record: Homo sapiens; experiment: Selectivity ratio of IC50 for voltage-gated Na channel (unknown origin) to IC50 for voltage-gated K channel 2.2 (unknown origin)
Homo sapiens [24] = species on record: Homo sapiens; experiment: Selectivity ratio of IC50 for voltage-gated K channel (unknown origin) to voltage-gated K channel 2.2 (unknown origin)
[25] = target: Potassium voltage-gated channel subfamily B member 2 (Homo sapiens, UniProt Q92953); experiment: Inhibition of voltage-gated K channel 2.2 (unknown origin) by automated patch clamp assay
Chain of Potassium voltage-gated channel subfamily B member 2 (Q92953 whole entry): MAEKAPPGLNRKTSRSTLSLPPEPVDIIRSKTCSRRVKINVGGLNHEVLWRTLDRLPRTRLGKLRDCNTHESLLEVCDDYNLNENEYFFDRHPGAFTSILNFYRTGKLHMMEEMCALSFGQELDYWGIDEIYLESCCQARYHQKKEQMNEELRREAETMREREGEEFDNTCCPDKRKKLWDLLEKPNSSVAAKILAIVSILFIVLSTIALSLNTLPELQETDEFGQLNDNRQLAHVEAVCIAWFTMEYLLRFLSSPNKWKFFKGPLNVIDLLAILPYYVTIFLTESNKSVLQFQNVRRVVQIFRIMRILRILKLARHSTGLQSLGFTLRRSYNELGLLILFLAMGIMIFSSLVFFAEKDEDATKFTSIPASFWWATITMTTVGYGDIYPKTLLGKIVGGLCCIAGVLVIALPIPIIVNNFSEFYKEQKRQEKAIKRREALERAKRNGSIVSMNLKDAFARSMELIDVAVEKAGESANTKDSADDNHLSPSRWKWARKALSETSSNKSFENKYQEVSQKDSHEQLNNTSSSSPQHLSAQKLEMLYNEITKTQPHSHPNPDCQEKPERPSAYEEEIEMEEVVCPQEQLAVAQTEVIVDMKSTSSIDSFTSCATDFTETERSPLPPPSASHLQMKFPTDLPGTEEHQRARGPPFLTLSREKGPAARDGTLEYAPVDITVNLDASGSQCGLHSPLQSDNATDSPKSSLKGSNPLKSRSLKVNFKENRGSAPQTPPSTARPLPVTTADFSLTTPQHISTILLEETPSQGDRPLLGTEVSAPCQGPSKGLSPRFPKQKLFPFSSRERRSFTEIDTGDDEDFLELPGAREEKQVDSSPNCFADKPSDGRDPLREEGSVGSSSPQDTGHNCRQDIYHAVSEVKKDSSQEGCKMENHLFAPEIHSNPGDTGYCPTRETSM

Homo sapiens [26] = species on record: Homo sapiens; experiment: Selectivity ratio of IC50 for voltage-gated K channel (unknown origin) to human voltage-gated K channel 2.1
Homo sapiens [27] = species on record: Homo sapiens; experiment: Selectivity ratio of IC50 for voltage-gated Na channel (unknown origin) to IC50 for human voltage-gated K channel 2.1
[28] = target: Gamma-aminobutyric acid receptor subunit alpha-1 (Homo sapiens) (UniProt P14867); experiment: Positive allosteric modulation of GABAA alpha1 (unknown origin) relative to control
[29] = target: Potassium channel subfamily K member 3 (Homo sapiens, UniProt O14649); experiment: Inhibition of TASK-1 (unknown origin)

Cc1csc(-c2cc(-c3ccncc3)c3n(c2=O)CCCc2ccncc2-3)n1
Ki [1]: 0.5 nM
Activity [2]: 37%
Ki [3]: 1.3 nM
Ki [4]: 0.6 nM

N[C@@H](Cn1cc(F)c(=O)[nH]c1=O)C(=O)O
EC50 [5]: 1500 nM
Ratio EC50 (Rattus norvegicus [6]): 46

Cc1nocc1C(=O)Nc1ccc(-c2ccccc2OC(F)(F)F)c(N)n1
Ratio IC50 (Homo sapiens [7]): > 20
Ratio IC50 (Homo sapiens [8]): > 20
Ratio IC50 (Homo sapiens [9]): > 20

CCc1nnnn1-c1cc(C(=O)NC(C)c2cnccn2)cc(-c2ccc(C)cc2)c1 (stereo not drawn)
IC50 [10]: 8000 nM

CNCCC(Oc1ccc(C(F)(F)F)cc1)c1ccccc1 (stereo not drawn) [FLUOXETINE]
IC50 [11]: 13100 nM

N=c1n(Cc2ccccc2)c2ccccc2n1CC(O)CN1CCOCC1 (stereo not drawn)
IC50 [12]: 24000 nM

Cn1ncnc1COc1nn2c(-c3cc(F)ccc3F)nnc2cc1C(C)(C)C
Ki [1]: 0.7 nM
Activity [2]: 34%
Activity [13]: 39%
Ki [4]: 0.7 nM
Activity [14]: 36%
Ki [15]: 2.3 nM

CC(C)NCCN(C(C)C)S(=O)(=O)c1ccc(Cl)cc1Cl
IC50 [16]: 2300 nM

O=C(NCc1ccc(Cl)c(C(F)(F)F)c1)c1ccc(S(=O)(=O)Nc2ncc(Cl)s2)cc1
IC50 [17]: 30 nM
Ratio IC50 (Homo sapiens [18]): > 1000

N[C@@H](Cn1cc(I)c(=O)[nH]c1=O)C(=O)O
Ratio EC50 (Rattus norvegicus [19]): 137
EC50 [20]: 140 nM

CC(C)C1c2cc(C3CC3c3ccc4cc(C(=N)N)ccc4c3)ccc2CCN1C (stereo not drawn)
IC50 [21]: 9500 nM

N=C(N)NC(=O)c1nc(Cl)c(N)nc1N [AMILORIDE]
IC50 [22]: 10000 nM

CC(C)C(=O)Nc1ccc(N(C)C)c(C(=O)N[C@@H](C)c2ccccc2)c1
Ratio IC50 (Homo sapiens [23]): > 10
Ratio IC50 (Homo sapiens [24]): > 10
IC50 [25]: 100 nM
Ratio IC50 (Homo sapiens [26]): > 10
Ratio IC50 (Homo sapiens [27]): > 10

Cc1cc(-c2nncc3c(C(C)(C)C)c(OCc4ncnn4C)nn23)no1
Ki [1]: 0.8 nM
Activity [2]: 4%
Activity [13]: -15%
Ki [3]: 0.8 nM
Ki [4]: 0.8 nM
Activity [28]: 23%
Ki [15]: 1.4 nM

CCCC(=O)C1CCN(c2ncnc3c2CN(C(=O)c2ccc(-c4ccccc4)cc2)CC3)CC1
IC50 [29]: 300 nM
